Measurements published in PubChem BioAssay AID1963861 (Molecular Pharmacology Branch, DTP, NCI, 2024).

Tested on: 885724-159-R-J1-PDC KRAS PDC multicell spheroid viability
Test: Anticancer human tumor 885724-159-R-J1-PDC patient-derived pancreatic adenocarcinoma cell line growth inhibition [KRAS2]
Details: for IC50: curve of first compound; for viability, T/C: stronger effect = lower value
Summary of the method: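 KRAS-mutant tumor cells were grown as spheroids with HUVEC endothelial cells and human MSCs as stroma. Targeted agents were tested alone and with KRAS pathway inhibitors. Doses started at or near clinical Cmax, or 10 microM, descending half-log.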

[1] = second compound 0.1 µM, first compound 0.0316 µM
[2] = second compound 0.1 µM, first compound 0.1 µM
[3] = second compound 0.1 µM, first compound 0.316 µM
[4] = second compound 0.1 µM, first compound 1 µM
[5] = second compound 0.1 µM, first compound 3.16 µM
[6] = second compound 0.1 µM, first compound 10 µM
[7] = second compound 0.316 µM, first compound 0.0316 µM
[8] = second compound 0.316 µM, first compound 0.1 µM
[9] = second compound 0.316 µM, first compound 0.316 µM
[10] = second compound 0.316 µM, first compound 1 µM
[11] = second compound 0.316 µM, first compound 3.16 µM
[12] = second compound 0.316 µM, first compound 10 µM
[13] = second compound 1 µM, first compound 0.0316 µM
[14] = second compound 1 µM, first compound 0.1 µM
[15] = second compound 1 µM, first compound 0.316 µM
[16] = second compound 1 µM, first compound 1 µM
[17] = second compound 1 µM, first compound 3.16 µM
[18] = second compound 1 µM, first compound 10 µM
[19] = second compound 3.16 µM, first compound 0.0316 µM
[20] = second compound 3.16 µM, first compound 0.1 µM
[21] = second compound 3.16 µM, first compound 0.316 µM
[22] = second compound 3.16 µM, first compound 1 µM
[23] = second compound 3.16 µM, first compound 3.16 µM
[24] = second compound 3.16 µM, first compound 10 µM
[25] = second compound 10 µM, first compound 0.0316 µM
[26] = second compound 10 µM, first compound 0.1 µM
[27] = second compound 10 µM, first compound 0.316 µM
[28] = second compound 10 µM, first compound 1 µM
[29] = second compound 10 µM, first compound 3.16 µM
[30] = second compound 10 µM, first compound 10 µM
[31] = second compound 0.1 µM, first compound 0.01 µM
[32] = second compound 0.316 µM, first compound 0.01 µM
[33] = second compound 1 µM, first compound 0.01 µM
[34] = second compound 3.16 µM, first compound 0.01 µM
[35] = second compound 10 µM, first compound 0.01 µM
[36] = second compound 0.1 µM, first compound 0.00316 µM
[37] = second compound 0.316 µM, first compound 0.00316 µM
[38] = second compound 1 µM, first compound 0.00316 µM
[39] = second compound 3.16 µM, first compound 0.00316 µM
[40] = second compound 10 µM, first compound 0.00316 µM
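Also: spheroids exposed to agents for 7 days before readout.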

| Structure (SMILES) | IC50 (second compound 0.1 µM) | IC50 (second compound 0.316 µM) | IC50 (second compound 1 µM) | IC50 (second compound 3.16 µM) | IC50 (second compound 10 µM) | viability, T/C [1] | viability, T/C [2] | viability, T/C [3] | viability, T/C [4] | viability, T/C [7] | viability, T/C [8] | viability, T/C [9] | viability, T/C [10] | viability, T/C [13] | viability, T/C [14] | viability, T/C [15] | viability, T/C [19] | viability, T/C [20] | viability, T/C [25] | viability, T/C [26] | further results |
| --- | --- | --- | --- | --- | --- | --- | --- | --- | --- | --- | --- | --- | --- | --- | --- | --- | --- | --- | --- | --- | --- |
| CC(C)NCC(C(=O)N1CCN(c2ncnc3c2C(C)CC3O)CC1)c1ccc(Cl)cc1 (stereo not given) + COc1cc2nc(C)nc(NC(C)c3cc(N)cc(C(F)(F)F)c3)c2cc1OC1CCOC1 | > 10000 nM | > 10000 nM | > 10000 nM | 8310 nM | < 31.6 nM | 86.3% | 77.1% | 75.7% | 71.6% | 88.8% | 87.2% | 70.5% | 70.3% | 86.4% | 77.5% | 69.1% | 76.7% | 72.3% | 39.2% | 37.5% | viability, T/C [5]: 74.6%; viability, T/C [6]: 56.8%; viability, T/C [11]: 75.7%; viability, T/C [12]: 57.7%; viability, T/C [16]: 70.8%; viability, T/C [17]: 71.6%; viability, T/C [18]: 56.4%; viability, T/C [21]: 66%; viability, T/C [22]: 71.3%; viability, T/C [23]: 76.9%; viability, T/C [24]: 45.8%; viability, T/C [27]: 26.9%; viability, T/C [28]: 20.8%; viability, T/C [29]: 11.5%; viability, T/C [30]: 6.18% |
| CC1COCCN1c1cc(-c2ccnn2C)c2ccnc(-c3ccn[nH]3)c2n1 (stereo not given) + COc1cc2nc(C)nc(NC(C)c3cc(N)cc(C(F)(F)F)c3)c2cc1OC1CCOC1 | 2720 nM | > 3160 nM | > 3160 nM | > 3160 nM | < 10 nM | 91.6% | 71.5% | 62.5% | 49.1% | 94.3% | 70% | 63% | 52% | 88.4% | 73.5% | 60.6% | 89.2% | 71.3% | 51.7% | 49.4% | viability, T/C [31]: 99.4%; viability, T/C [5]: 50.9%; viability, T/C [32]: 101%; viability, T/C [11]: 53.9%; viability, T/C [33]: 111%; viability, T/C [16]: 56%; viability, T/C [17]: 58.4%; viability, T/C [34]: 97.3%; viability, T/C [21]: 61.9%; viability, T/C [22]: 59.2%; viability, T/C [23]: 52.9%; viability, T/C [35]: 46%; viability, T/C [27]: 34.2%; viability, T/C [28]: 41.9%; viability, T/C [29]: 32.2% |
| CC1OCC2(CCN(c3cnc(Sc4ccnc(N)c4Cl)c(N)n3)CC2)C1N (stereo not given) + COc1cc2nc(C)nc(NC(C)c3cc(N)cc(C(F)(F)F)c3)c2cc1OC1CCOC1 | > 10000 nM | > 10000 nM | > 10000 nM | > 10000 nM | < 31.6 nM | 90% | 84.8% | 76.7% | 67.1% | 93.4% | 82.7% | 73.2% | 67.6% | 83.4% | 82.5% | 70% | 76.5% | 73.1% | 22.7% | 21.7% | viability, T/C [5]: 62.1%; viability, T/C [6]: 53.7%; viability, T/C [11]: 57.2%; viability, T/C [12]: 54.7%; viability, T/C [16]: 62.7%; viability, T/C [17]: 57%; viability, T/C [18]: 51.4%; viability, T/C [21]: 69.6%; viability, T/C [22]: 59%; viability, T/C [23]: 55.1%; viability, T/C [24]: 51.6%; viability, T/C [27]: 19.5%; viability, T/C [28]: 13.1%; viability, T/C [29]: 13.5%; viability, T/C [30]: 5.33% |
| CCN1CCN(Cc2ccc(Nc3ncc(F)c(-c4cc(F)c5nc(C)n(C(C)C)c5c4)n3)nc2)CC1 + COc1cc2nc(C)nc(NC(C)c3cc(N)cc(C(F)(F)F)c3)c2cc1OC1CCOC1 | > 1000 nM | > 1000 nM | > 1000 nM | > 1000 nM | < 3.16 nM | 84.2% | 80.7% | 80.7% | 86.1% | 79.9% | 79% | 75.2% | 76.6% | 78.6% | 73.2% | 72.4% | 76% | 63% | 28.3% | 36.6% | viability, T/C [36]: 88.8%; viability, T/C [31]: 89.7%; viability, T/C [37]: 96.3%; viability, T/C [32]: 86.2%; viability, T/C [38]: 90%; viability, T/C [33]: 86.9%; viability, T/C [16]: 80.8%; viability, T/C [39]: 80.3%; viability, T/C [34]: 91.6%; viability, T/C [21]: 71.5%; viability, T/C [22]: 73.1%; viability, T/C [40]: 38.2%; viability, T/C [35]: 35.9%; viability, T/C [27]: 17.6%; viability, T/C [28]: 7.18% |
| CCNC(=O)CC1N=C(c2ccc(Cl)cc2)c2cc(OC)ccc2-n2c(C)nnc21 (stereo not given) + COc1cc2nc(C)nc(NC(C)c3cc(N)cc(C(F)(F)F)c3)c2cc1OC1CCOC1 | 2350 nM | 3080 nM | 2490 nM | 952 nM | < 31.6 nM | 99.4% | 91.5% | 75.2% | 53.8% | 101% | 89.6% | 76.4% | 57% | 95.9% | 94.4% | 72% | 94.6% | 99.6% | 34.8% | 22.4% | viability, T/C [5]: 50%; viability, T/C [6]: 45.7%; viability, T/C [11]: 51.7%; viability, T/C [12]: 44.8%; viability, T/C [16]: 55.9%; viability, T/C [17]: 49.1%; viability, T/C [18]: 46.9%; viability, T/C [21]: 69.1%; viability, T/C [22]: 54.3%; viability, T/C [23]: 47.8%; viability, T/C [24]: 44.6%; viability, T/C [27]: 16.5%; viability, T/C [28]: 14.1%; viability, T/C [29]: 20.1%; viability, T/C [30]: 12.4% |
| Cn1ncnc1[C@H]1c2n[nH]c(=O)c3cc(F)cc(c23)N[C@@H]1c1ccc(F)cc1 + COc1cc2nc(C)nc(NC(C)c3cc(N)cc(C(F)(F)F)c3)c2cc1OC1CCOC1 | > 100 nM | > 100 nM | > 100 nM | > 100 nM | < 0.316 nM | 92.1% | 93.4% |  |  | 94.5% | 91.3% |  |  | 102% | 85.5% |  | 94.3% | 83.1% | 34.2% | 30.4% | viability, T/C (second compound 0.1 µM, first compound 0.000316 µM): 104%; viability, T/C (second compound 0.1 µM, first compound 0.001 µM): 101%; viability, T/C [36]: 102%; viability, T/C [31]: 96.2%; viability, T/C (second compound 0.316 µM, first compound 0.000316 µM): 96.3%; viability, T/C (second compound 0.316 µM, first compound 0.001 µM): 102%; viability, T/C [37]: 98.6%; viability, T/C [32]: 98.3%; viability, T/C (second compound 1 µM, first compound 0.000316 µM): 98.2%; viability, T/C (second compound 1 µM, first compound 0.001 µM): 96.5%; viability, T/C [38]: 92.4%; viability, T/C [33]: 94.3%; viability, T/C (second compound 3.16 µM, first compound 0.000316 µM): 91.8%; viability, T/C (second compound 3.16 µM, first compound 0.001 µM): 97.9%; viability, T/C [39]: 90.5%; viability, T/C [34]: 88.5%; viability, T/C (second compound 10 µM, first compound 0.000316 µM): 42.1%; viability, T/C (second compound 10 µM, first compound 0.001 µM): 44.8%; viability, T/C [40]: 20.7%; viability, T/C [35]: 48.3% |
